Legend:
Assay type in all cases: cell-based
IKZF2 (Helios) = IKZF2 (Helios) (Homo sapiens (Human), UniProt Q96SW2+Q9UKS7); experiment: IKZF2 reporter degradation assay (HEK 293T IKZF2-mNeonGreen reporter cell line); conditions: 24 hour incubation; for inhibition at 1 µM: HEK-293T, 24 h
Excerpt: (§1) Polycistronic plasmids were constructed for the mammalian expression of fluorescent reporter fusions of human transcription factors IKZF1 (Ikaros), IKZF2 (Helios), and IKZF3 (Aiolos). The respective protein sequences had their C-terminal end joined to a GGGGS linker repeated three times followed by mNeonGreen, P2A sequence, and mScarlet. The DNA sequences of the open reading frames are as follows:
(§2) IKZF1, IKZF2, and IKZF3 constructs were cloned into the UCOE Hygromycin expression vectors (Millipore Sigma). Reporter constructs were transfected using cationic lipid reagents into adherent HEK 293T cells and stable integrants were selected by treatment with 200 μg/mL hygromycin B. Clonal populations were obtained from the population of stable integrants either by limiting dilution or fluorescence activated cell sorting.
(§3) The clonal stable cell lines were maintained under constant 200 μg/mL hygromycin B selection while being passaged for use in the degradation assays. […] The fluorescence intensity of the IKZF1/2/3-mNeonGreen (FITC channel) and mScarlet (PE channel) reporters were routinely analyzed by flow cytometry to confirm consistent expression levels between experiments.
(§4) The IKZF1/IKZF2/IKZF3 degradation assays were carried out by harvesting the HEK 293T reporter cell lines and resuspending the cells in media formulated for reduced background fluorescence (FluoroBrite; Thermo Fisher). The respective cell lines were seeded at a density of 4000 cells/well into black-walled 384-well optical grade assay tissue culture plates. The cells were incubated overnight at 37° C. to allow for attachment to the assay plate. Dilutions of the compounds were prepared in DMSO from 10 mM compound stocks. The assay plates were treated with appropriate concentrations of the compounds by dispensing the DMSO dilutions in quadruplicate wells with an upper limit of 0.5% final DMSO.
(§5) After 24 hour incubation with the compounds, the assay plates were imaged on an ImageXpress Pico microscopy system (cells maintained at 37° C. during imaging) to obtain the fluorescent readouts. The assay plates were imaged in the FITC and Tetramethylrhodamine (TRITC) channels to obtain the mNeonGreen fluorescence intensity (reporter degradation data) and mScarlet fluorescence intensity (for cell segmentation). 293T-IKZF1 and 293T-IKZF3 reporter cell lines were imaged with exposures of 500 milliseconds (ms) for both FITC and TRITC channels, while the 293T-IKZF2 reporter cell line was imaged with exposures of 1000 ms for FITC and 1250 ms for TRITC. The resulting data was analyzed with Cell Reporter Xpress software using the 2-channel cell scoring analysis with a “percent positive” readout. The TRITC channel was selected for the “nuclei” segmentation with a threshold of 20 while the FITC channel was selected for the “Marker 1” segmentation and a threshold of 100 for the IKZF and IKZF3 reporter lines. […] The minimum segmentation width was set to 6 micrometers and the maximum segmentation width was set to 15 micrometers for all cell lines. The DC50 calculations were determined by regression to best fit four-parameter logistic curves using GraphPad Prism.

IKZF1 (Ikaros) = IKZF1 (Ikaros) (Homo sapiens (Human), UniProt Q13422+Q96SW2); experiment: IKZF1 reporter degradation assay (HEK 293T IKZF1-mNeonGreen reporter cell line); conditions: HEK 293T reporter cells, 24 hour incubation
Excerpt: as §1, §2, §3, §4, §5

IKZF3 (Aiolos) = IKZF3 (Aiolos) (Homo sapiens (Human), UniProt Q96SW2+Q9UKT9); experiment: IKZF3 reporter degradation assay (HEK 293T IKZF3-mNeonGreen reporter cell line); conditions: HEK 293T reporter cells, 24 hour incubation
Excerpt: as §1, §2, §3, §4, §5

GSPT1 = GSPT1 (Homo sapiens (Human), UniProt P15170+Q96SW2); experiment: GSPT1 reporter degradation assay (HEK293 hGSPT1 HiBiT-tagged cells); conditions: 24 hour incubation
Method: HEK293_hGSPT1_HiBiT-tagged cells were generated using CRISPR-Cas12a technology. Briefly, ˜400,000 HEK293 cells were transiently co-transfected with precomplexed ribonuclear proteins (RNPs) consisting of […] of crRNA (IDT), […] of Cas12a protein (IDT), 3 μg of ssODN donor (IDT; AltRTM modifications), 78 pmol of electroporation enhancer (IDT), and 200 ng of pMaxGFP (Lonza). The transfection was performed via nucleofection (Lonza, 4D-Nucleofector X-unit) using solution P3 and program CM-130 in a (20 μL) cuvette. Five days post-nucleofection, cells were single-cell-sorted for GFP+ (transfected) cells by FACs in 96-well plates and clonally selected. Clones were screened and verified for the desired modification via targeted deep sequencing using gene-specific primers with partial Illumina adapter overhangs as previously described. In brief, clonal cell pellets were harvested, lysed, and used to generate gene-specific amplicons with partial Illumina adapters in PCR #1. Amplicons were indexed in PCR #2 and pooled with other targeted amplicons for other loci to create sequence diversity. Additionally, 10% PhiX sequencing control V3 (Illumina) was added to the pooled amplicon library prior to running the sample on a Miseq Sequencer System (Illumina) to generate paired 2×250 bp reads. Samples were demultiplexed using the index sequences, fastq files were generated, and NGS analysis was performed using CRIS.py.
The GSTP1 degradation assay was carried out by harvesting the HEK 293T reporter cell lines and resuspending the cells in media formulated for reduced background fluorescence (FluoroBrite; Thermo Fisher). The respective cell lines were seeded at a density of 8,000 cells/well into white-opaque 384-well optical grade assay tissue culture plates (Greiner 781080-20). The cells were incubated overnight at 37° C. to allow for attachment to the assay plate. Dilutions of the compounds were prepared in DMSO from 10 mM compound stocks. […] Plates were centrifuged at 320×g for 2 minutes at room temperature, and subsequently incubated at 37° C.
After 24 hour incubation with the compounds, the plates were allowed to cool to room temperature for 10 minutes. 30 μL of HiBiT lytic buffer+1:50 HiBiT substrate Solution were added to each well. Plates were centrifuged at 320×g for 2 minutes at room temperature and then incubated with shaking at room temperature for 10 minutes covered with foil. Plates were read on a CLARIOstar microplate reader (BMG LabTech), measuring at 450 nm (donor emission) and 610 nm or 630 nm (acceptor emission). The DC50 values were determined by regression to best fit four-parameter logistic curves using GraphPad Prism.

[1] = Table 3, HEK 293T reporter cells
[2] = second (untitled) table after Table 3

Chain of IKZF1 (Ikaros) (Q13422 whole entry): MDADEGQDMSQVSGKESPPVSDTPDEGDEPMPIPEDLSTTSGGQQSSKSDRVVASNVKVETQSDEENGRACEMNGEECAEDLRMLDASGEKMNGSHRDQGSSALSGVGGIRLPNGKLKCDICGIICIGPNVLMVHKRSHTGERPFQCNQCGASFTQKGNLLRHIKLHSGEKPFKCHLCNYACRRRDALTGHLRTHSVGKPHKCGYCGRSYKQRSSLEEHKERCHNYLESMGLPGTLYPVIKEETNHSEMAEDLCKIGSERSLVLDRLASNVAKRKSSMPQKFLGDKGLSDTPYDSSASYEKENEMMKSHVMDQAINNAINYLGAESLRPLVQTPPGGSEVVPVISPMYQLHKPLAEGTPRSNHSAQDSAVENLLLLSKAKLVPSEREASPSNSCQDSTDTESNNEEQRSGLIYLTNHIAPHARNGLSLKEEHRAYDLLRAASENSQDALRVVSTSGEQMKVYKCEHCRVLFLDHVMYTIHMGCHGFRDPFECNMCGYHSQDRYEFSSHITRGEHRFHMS
Chain of IKZF1 (Ikaros) (Q96SW2 whole entry): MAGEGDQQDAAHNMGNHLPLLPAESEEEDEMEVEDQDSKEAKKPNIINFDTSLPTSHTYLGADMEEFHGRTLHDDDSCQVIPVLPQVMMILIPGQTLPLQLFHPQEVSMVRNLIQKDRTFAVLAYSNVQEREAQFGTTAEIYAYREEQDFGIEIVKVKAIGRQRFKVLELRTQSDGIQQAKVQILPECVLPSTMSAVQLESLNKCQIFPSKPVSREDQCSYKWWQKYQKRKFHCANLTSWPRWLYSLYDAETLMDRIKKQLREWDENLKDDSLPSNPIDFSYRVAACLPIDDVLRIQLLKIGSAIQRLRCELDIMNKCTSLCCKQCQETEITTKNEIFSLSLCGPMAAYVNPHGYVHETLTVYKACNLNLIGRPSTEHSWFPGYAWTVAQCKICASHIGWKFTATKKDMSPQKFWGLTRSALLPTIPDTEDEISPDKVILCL
Chain of IKZF1 (Ikaros) (Q16531 whole entry partner): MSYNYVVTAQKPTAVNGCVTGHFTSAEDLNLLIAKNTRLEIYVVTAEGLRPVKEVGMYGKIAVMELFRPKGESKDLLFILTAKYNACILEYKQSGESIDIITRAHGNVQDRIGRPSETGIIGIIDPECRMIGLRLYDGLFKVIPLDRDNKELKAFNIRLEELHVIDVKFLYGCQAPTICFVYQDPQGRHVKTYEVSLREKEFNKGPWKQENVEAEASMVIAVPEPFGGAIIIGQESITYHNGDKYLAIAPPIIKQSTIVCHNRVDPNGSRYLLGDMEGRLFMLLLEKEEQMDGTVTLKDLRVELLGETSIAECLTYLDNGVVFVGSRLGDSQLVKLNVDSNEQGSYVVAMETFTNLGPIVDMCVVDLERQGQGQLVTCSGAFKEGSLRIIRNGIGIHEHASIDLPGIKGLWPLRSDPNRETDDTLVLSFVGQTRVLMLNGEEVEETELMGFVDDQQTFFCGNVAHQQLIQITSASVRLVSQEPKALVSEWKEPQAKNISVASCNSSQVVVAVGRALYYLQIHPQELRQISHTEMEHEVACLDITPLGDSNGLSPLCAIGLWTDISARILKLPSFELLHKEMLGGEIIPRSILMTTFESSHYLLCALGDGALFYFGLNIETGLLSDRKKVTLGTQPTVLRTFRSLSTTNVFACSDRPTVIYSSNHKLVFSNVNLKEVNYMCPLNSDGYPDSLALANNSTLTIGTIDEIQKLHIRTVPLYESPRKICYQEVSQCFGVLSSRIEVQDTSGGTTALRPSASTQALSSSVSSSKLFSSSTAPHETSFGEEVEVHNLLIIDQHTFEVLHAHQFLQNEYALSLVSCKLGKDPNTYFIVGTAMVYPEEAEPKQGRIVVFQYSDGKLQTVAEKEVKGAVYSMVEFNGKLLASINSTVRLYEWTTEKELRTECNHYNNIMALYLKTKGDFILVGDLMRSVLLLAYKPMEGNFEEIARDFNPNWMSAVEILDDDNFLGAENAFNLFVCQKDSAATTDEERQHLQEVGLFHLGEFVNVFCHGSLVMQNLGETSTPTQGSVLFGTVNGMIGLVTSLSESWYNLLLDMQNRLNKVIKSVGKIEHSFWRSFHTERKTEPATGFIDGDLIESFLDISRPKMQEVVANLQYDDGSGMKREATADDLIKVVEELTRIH
Chain of GSPT1 (P15170 whole entry): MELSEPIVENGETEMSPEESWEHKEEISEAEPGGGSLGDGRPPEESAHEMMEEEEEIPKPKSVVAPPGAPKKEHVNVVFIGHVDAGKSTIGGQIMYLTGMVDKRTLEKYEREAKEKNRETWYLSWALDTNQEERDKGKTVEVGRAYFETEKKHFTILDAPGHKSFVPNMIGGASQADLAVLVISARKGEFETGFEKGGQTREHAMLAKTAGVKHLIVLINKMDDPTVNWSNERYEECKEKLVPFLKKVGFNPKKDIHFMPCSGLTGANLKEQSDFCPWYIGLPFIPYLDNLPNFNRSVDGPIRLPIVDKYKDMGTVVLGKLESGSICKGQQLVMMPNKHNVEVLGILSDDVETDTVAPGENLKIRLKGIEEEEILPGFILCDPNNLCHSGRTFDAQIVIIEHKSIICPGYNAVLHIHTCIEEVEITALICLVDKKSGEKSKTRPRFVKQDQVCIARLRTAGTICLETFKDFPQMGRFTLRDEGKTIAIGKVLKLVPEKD
Chain of GSPT1 (Q96SW2 whole entry): as the sequence (Q96SW2 whole entry) above
Chain of GSPT1 (Q16531 whole entry partner): as the sequence (Q16531 whole entry partner) above
Chain of IKZF3 (Aiolos) (Q9UKT9 whole entry): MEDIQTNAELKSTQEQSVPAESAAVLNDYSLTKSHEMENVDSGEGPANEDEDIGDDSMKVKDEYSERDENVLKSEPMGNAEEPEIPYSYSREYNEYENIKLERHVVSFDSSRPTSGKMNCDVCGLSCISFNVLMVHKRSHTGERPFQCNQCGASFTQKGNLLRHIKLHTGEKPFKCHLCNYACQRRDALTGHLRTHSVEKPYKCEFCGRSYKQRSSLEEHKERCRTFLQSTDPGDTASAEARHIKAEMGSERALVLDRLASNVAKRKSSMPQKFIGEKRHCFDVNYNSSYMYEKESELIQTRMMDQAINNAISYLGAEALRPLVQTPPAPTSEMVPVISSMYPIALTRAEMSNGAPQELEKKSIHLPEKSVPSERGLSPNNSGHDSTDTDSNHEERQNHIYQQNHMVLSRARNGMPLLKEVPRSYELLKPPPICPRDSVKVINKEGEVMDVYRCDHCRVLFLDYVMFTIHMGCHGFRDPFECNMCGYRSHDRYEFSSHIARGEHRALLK
Chain of IKZF3 (Aiolos) (Q96SW2 whole entry): as the sequence (Q96SW2 whole entry) above
Chain of IKZF3 (Aiolos) (Q16531 whole entry partner): as the sequence (Q16531 whole entry partner) above
Chain of IKZF2 (Helios) (Q9UKS7 whole entry, the tested form may be a part): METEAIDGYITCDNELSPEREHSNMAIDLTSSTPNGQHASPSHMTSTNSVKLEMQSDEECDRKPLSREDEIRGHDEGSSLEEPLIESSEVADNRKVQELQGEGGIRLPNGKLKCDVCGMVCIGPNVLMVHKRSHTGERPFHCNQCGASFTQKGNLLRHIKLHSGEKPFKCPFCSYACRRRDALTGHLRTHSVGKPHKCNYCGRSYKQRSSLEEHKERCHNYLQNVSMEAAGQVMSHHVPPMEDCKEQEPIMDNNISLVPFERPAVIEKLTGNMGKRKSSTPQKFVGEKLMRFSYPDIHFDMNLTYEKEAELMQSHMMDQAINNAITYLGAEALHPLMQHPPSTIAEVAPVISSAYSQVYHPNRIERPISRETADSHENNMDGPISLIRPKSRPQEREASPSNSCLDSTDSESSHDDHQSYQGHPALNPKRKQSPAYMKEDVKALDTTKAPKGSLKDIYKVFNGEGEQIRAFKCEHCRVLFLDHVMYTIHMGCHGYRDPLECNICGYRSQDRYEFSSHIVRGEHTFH
Chain of IKZF2 (Helios) (Q96SW2 whole entry, the tested form may be a part): as the sequence (Q96SW2 whole entry) above
Chain of IKZF2 (Helios) (Q16531 whole entry partner, the tested form may be a part): as the sequence (Q16531 whole entry partner) above

SMILES	DC50 (IKZF2 (Helios); HEK 293T reporter cells) [µM]	inhibition at 1 µM (IKZF2 (Helios); [1]) [%]	inhibition at 1 µM (IKZF2 (Helios); [2]) [%]	DC50 (IKZF1 (Ikaros)) [µM]	DC50 (IKZF3 (Aiolos)) [µM]	DC50 (GSPT1) [µM]	IKZF2% Degradation @ 1 μM (IKZF2 (Helios); [1]) [%]	IKZF2% Degradation @ 1 μM (IKZF2 (Helios); [2]) [%]	IKZF3% Degradation @ 1 μM (IKZF3 (Aiolos); 1 μM) [%]
O=C1CCC(N2Cc3cc(O[C@H]4CCCC[C@@H]4N4CC(C5CCC(F)(F)CC5)C4)ccc3C2=O)C(=O)N1 (stereo partly drawn) [Compound 2, 3-(5-(((1S,2S)-2-(3-(4,4-difluorocyclohexyl)azetidin-1-yl)cyclohexyl)oxy)-1-oxoisoindolin-2-yl)piperidine-2,6-dione]	0.003	74.6	74.6	> 30	> 30	> 30	–	–	–
O=C1CCC(N2Cc3cc(O[C@H]4CCCC[C@@H]4N4CC(C5CCC5)C4)ccc3C2=O)C(=O)N1 (stereo partly drawn) [Compound 5, 3-(5-(((1S,2S)-2-(3-cyclobutylazetidin-1-yl)cyclohexyl)oxy)-1-oxoisoindolin-2-yl)piperidine-2,6-dione]	0.004	85	85	> 30	> 30	> 30	–	–	–
O=C1CCC(N2Cc3cc(O[C@H]4CCCC[C@@H]4N4CC(C5CCCC5)C4)ccc3C2=O)C(=O)N1 (stereo partly drawn) [Compound 6, 3-(5-(((1S,2S)-2-(3-cyclopentylazetidin-1-yl)cyclohexyl)oxy)-1-oxoisoindolin-2-yl)piperidine-2,6-dione]	0.003	86.3	86.3	> 30	> 30	> 30	–	–	–
O=C1CCC(N2Cc3cc(O[C@H]4CCC[C@@H]4N4CC(C5CCC(F)(F)CC5)C4)ccc3C2=O)C(=O)N1 (stereo partly drawn) [Compound 13, 3-(5-(((1S,2S)-2-(3-(4,4-difluorocyclohexyl)azetidin-1-yl)cyclopentyl)oxy)-1-oxoisoindolin-2-yl)piperidine-2,6-dione]	0.005	75.9	75.9	> 30	> 30	> 30	–	–	–
CC(C)OC1CCC(C2CN([C@H]3CCCC[C@@H]3Oc3ccc4c(c3)CN(C3CCC(=O)NC3=O)C4=O)C2)CC1 (stereo partly drawn) [Compound 17, 3-(5-(((1S,2S)-2-(3-((trans)-4-isopropoxycyclohexyl)azetidin-1-yl)cyclohexyl)oxy)-1-oxoisoindolin-2-yl)piperidine-2,6-dione]	0.001	–	–	> 30	> 30	> 30	96.7	96.7	–
O=C1CCC(N2Cc3cc(O[C@H]4CCCC[C@@H]4N4CC(C5CC5)C4)ccc3C2=O)C(=O)N1 (stereo partly drawn) [Compound 3, 3-(5-(((1S,2S)-2-(3-cyclopropylazetidin-1-yl)cyclohexyl)oxy)-1-oxoisoindolin-2-yl)piperidine-2,6-dione]	0.012	67.7	67.7	> 30	> 30	> 30	–	–	–

Second part, the molecule after the results:

DC50 (IKZF2 (Helios); HEK 293T reporter cells) [µM]	inhibition at 1 µM (IKZF2 (Helios); [1]) [%]	inhibition at 1 µM (IKZF2 (Helios); [2]) [%]	DC50 (IKZF1 (Ikaros)) [µM]	DC50 (IKZF3 (Aiolos)) [µM]	DC50 (GSPT1) [µM]	IKZF2% Degradation @ 1 μM (IKZF2 (Helios); [1]) [%]	IKZF2% Degradation @ 1 μM (IKZF2 (Helios); [2]) [%]	IKZF3% Degradation @ 1 μM (IKZF3 (Aiolos); 1 μM) [%]	SMILES
0.003	85	85	> 30	> 30	> 30	–	–	–	O=C1CCC(N2Cc3cc(O[C@H]4CCCC[C@@H]4N4CC(C5CCCC(F)(F)C5)C4)ccc3C2=O)C(=O)N1 (stereo partly drawn) [Compound 20, 3-(5-(((1S,2S)-2-(3-(3,3-difluorocyclohexyl)azetidin-1-yl)cyclohexyl)oxy)-1-oxoisoindolin-2-yl)piperidine-2,6-dione]
0.002	72.8	72.8	> 30	> 30	> 30	–	–	–	CCOC1CCC(C2CN([C@H]3CCCC[C@@H]3Oc3ccc4c(c3)CN(C3CCC(=O)NC3=O)C4=O)C2)CC1 (stereo partly drawn) [Compound 19, 3-(5-(((1S,2S)-2-(3-(4-ethoxycyclohexyl)azetidin-1-yl)cyclohexyl)oxy)-1-oxoisoindolin-2-yl)piperidine-2,6-dione]
0.025	77.8	77.8	> 30	> 30	> 30	–	–	–	O=C1CCC(N2Cc3cc(O[C@H]4CCCC[C@@H]4N4CC(C5CC5)C4)c(F)cc3C2=O)C(=O)N1 (stereo partly drawn) [Compound 26, 3-(5-(((1S,2S)-2-(3-cyclopropylazetidin-1-yl)cyclohexyl)oxy)-6-fluoro-1-oxoisoindolin-2-yl)piperidine-2,6-dione]
0.018	85.8	85.8	> 30	> 30	> 30	–	–	–	O=C1CCC(N2Cc3c(ccc(O[C@H]4CCCC[C@@H]4N4CC(C5CC5)C4)c3F)C2=O)C(=O)N1 (stereo partly drawn) [Compound 24, 3-(5-(((1S,2S)-2-(3-cyclopropylazetidin-1-yl)cyclohexyl)oxy)-4-fluoro-1-oxoisoindolin-2-yl)piperidine-2,6-dione]
0.029	71.1	95.8	> 30	> 30	> 30	–	–	–	O=C1CCC(N2Cc3cc(O[C@H]4CCCC[C@@H]4N4CC(C5CC(F)(F)C5)C4)ccc3C2=O)C(=O)N1 (stereo partly drawn) [Compound 18, 3-(5-(((1S,2S)-2-(3-(3,3-difluorocyclobutyl)azetidin-1-yl)cyclohexyl)oxy)-1-oxoisoindolin-2-yl)piperidine-2,6-dione]
0.02	84.1	84.1	> 30	> 30	> 30	–	–	–	O=C1CCC(N2Cc3cc(O[C@H]4CCCC[C@@H]4N4CC(C5CCC5)C4)c(F)cc3C2=O)C(=O)N1 (stereo partly drawn) [Compound 27, 3-(5-(((1S,2S)-2-(3-cyclobutylazetidin-1-yl)cyclohexyl)oxy)-6-fluoro-1-oxoisoindolin-2-yl)piperidine-2,6-dione]
0.002	86.7	86.7	> 30	0.006	> 30	–	–	32.4	O=C1CCC(N2Cc3cc(O[C@H]4CCCC[C@@H]4N4CC(C5CCC(OC(F)F)CC5)C4)ccc3C2=O)C(=O)N1 (stereo partly drawn) [Compound 21, 3-(5-(((1S,2S)-2-(3-(4-(difluoromethoxy)cyclohexyl)azetidin-1-yl)cyclohexyl)oxy)-1-oxoisoindolin-2-yl)piperidine-2,6-dione]
